Laboratory results taken from publication PMC7508628, “Targeting the Respiratory Syncytial Virus N^0-P Complex with Constrained α-Helical Peptides in Cells and Mice” (Antimicrobial Agents and Chemotherapy, 2020).
Where a SMILES comes first, the peptide text is derived from it. Bridges are numbered along the chain shown (N, C = ends). [ ]: non-standard residue; d: D form. R8 = C=CCCCCCC[C@@](C)(N)C(=O)O; R5 = C=CCCC[C@@](C)(N)C(=O)O; S5 = C=CCCC[C@](C)(N)C(=O)O

experiment: circular dichroism; conditions: 10 mM phosphate; pH 7.5; 25 °C; 50 uM

Which helicity does the source give for CC[C@H](C)[C@H](NC(=O)[C@]1(C)CCCC=CCCCCCC[C@@](C)(NC(=O)[C@H](CC(N)=O)NC(=O)[C@H](CC(N)=O)NC(=O)[C@H](C)NC(=O)[C@H](CC(=O)O)NC(=O)[C@H](CCC(=O)O)NC(C)=O)C(=O)N[C@@H](C)C(=O)N[C@@H]([C@@H](C)O)C(=O)N[C@@H](CCCCN)C(=O)N[C@@H](Cc2ccccc2)C(=O)N[C@@H](CC(C)C)C(=O)N[C@@H](CCC(=O)O)C(=O)N1)C(=O)N[C@@H](CCCCN)C(=O)NCC(=O)N[C@@H](CCCCN)C(=O)N[C@@H](Cc1ccccc1)C(=O)N[C@@H](C)C(=O)N[C@@H](CO)C(N)=O (Ac-EDANN[R8]ATKFLE[S5]IKGKFAS-NH2; staple 6-13) here?
The helicity was 36.5%.

Which helicity does the source give for CC[C@H](C)[C@H](NC(=O)[C@H](CO)NC(=O)[C@]1(C)CCCC=CCCC[C@@](C)(NC(=O)[C@@H](NC(=O)[C@H](C)NC(=O)[C@H](CCCCN)NC(=O)[C@H](CC(N)=O)NC(=O)[C@H](CC(N)=O)NC(=O)[C@H](C)NC(=O)[C@H](CC(=O)O)NC(=O)[C@H](CCC(=O)O)NC(C)=O)[C@@H](C)O)C(=O)N[C@@H](Cc2ccccc2)C(=O)N[C@@H](CC(C)C)C(=O)N1)C(=O)N[C@@H](CCCCN)C(=O)NCC(=O)N[C@@H](CCCCN)C(=O)N[C@@H](Cc1ccccc1)C(=O)N[C@@H](C)C(=O)N[C@@H](CO)C(N)=O (Ac-EDANNKAT[R5]FL[S5]SIKGKFAS-NH2; staple 9-12) here?
Its helicity is 58.9%.

For CC[C@H](C)[C@@H]1NC(=O)[C@H](CO)NC(=O)[C@H](CCC(=O)O)NC(=O)[C@H](CC(C)C)NC(=O)[C@H](Cc2ccccc2)NC(=O)[C@](C)(NC(=O)[C@@H](NC(=O)[C@H](C)NC(=O)[C@H](CCCCN)NC(=O)[C@H](CC(N)=O)NC(=O)[C@H](CC(N)=O)NC(=O)[C@H](C)NC(=O)[C@H](CC(=O)O)NC(=O)[C@H](CCC(=O)O)NC(C)=O)[C@@H](C)O)CCCCCCC=CCCC[C@@](C)(C(=O)N[C@@H](CCCCN)C(=O)N[C@@H](Cc2ccccc2)C(=O)N[C@@H](C)C(=O)N[C@@H](CO)C(N)=O)NC(=O)[C@H](CCCCN)NC1=O (Ac-EDANNKAT[R8]FLESIK[S5]KFAS-NH2; staple 9-16), which helicity is on record?
The helicity was 96%.

Which helicity does the source give for CC[C@H](C)[C@@H]1NC(=O)[C@H](CO)NC(=O)[C@](C)(NC(=O)[C@H](CC(C)C)NC(=O)[C@H](Cc2ccccc2)NC(=O)[C@H](CCCCN)NC(=O)[C@@H](NC(=O)[C@H](C)NC(=O)[C@H](CCCCN)NC(=O)[C@H](CC(N)=O)NC(=O)[C@H](CC(N)=O)NC(=O)[C@H](C)NC(=O)[C@H](CC(=O)O)NC(=O)[C@H](CCC(=O)O)NC(C)=O)[C@@H](C)O)CCCCCCC=CCCC[C@@](C)(C(=O)N[C@@H](CO)C(N)=O)NC(=O)[C@H](Cc2ccccc2)NC(=O)[C@H](CCCCN)NC(=O)CNC(=O)[C@H](CCCCN)NC1=O (Ac-EDANNKATKFL[R8]SIKGKF[S5]S-NH2; staple 12-19) here?
The helicity was 35.3%.

experiment: Circular dichroism spectroscopy, α-helical content; type: physicochemical; conditions: CD, 10 mM phosphate buffer pH 7.5, 50 μM peptide, 25°C, calculated from ellipticity at 222 nm; average of three measurements
Experimental: The α-helical stabilization appeared to be higher for the i, i + 7 staples overall.
The circular dichroism spectra were acquired on a Chirascan spectropolarimeter. The samples were prepared in 10 mM phosphate buffer, pH 7.5, at a peptide concentration of 50 μM. Data were recorded at 25°C by step scan from 180 nm to 260 nm in a 0.5-mm-pathlength quartz cell using 0.2-nm-wavelength increments, a 1-nm bandwidth, and a response time of 1 s. Each spectrum was an average of three measurements and was subtracted from the buffer baseline. The data were converted to per residue molar ellipticity units (θ; in degrees · square centimeters · decimoles^−1 · number of residues^−1) and smoothed using Igor Pro software. Percent helicity was calculated as follows: (100 × CD222)/(C × N × {40,000 × [1 − (2.5/N)]}), where CD222 is the molar ellipticity (θ) at 222 nm (in millidegrees), N is the number of amino acids in the peptide, and C is the peptide molar concentration (in moles per liter).

Which “% helicity” value does the source give for CC[C@H](C)[C@H](NC(=O)[C@H](CO)NC(=O)[C@H](CCC(=O)O)NC(=O)[C@H](CC(C)C)NC(=O)[C@H](Cc1ccccc1)NC(=O)[C@H](CCCCN)NC(=O)[C@@H](NC(=O)[C@H](C)NC(=O)[C@H](CCCCN)NC(=O)[C@]1(C)CCCC=CCCC[C@@](C)(NC(=O)[C@H](CCC(=O)O)NC(=O)CNC(=O)[C@H](Cc2c[nH]cn2)NC(=O)[C@H](Cc2ccccc2)NC(=O)[C@H](CCC(=O)O)NC(C)=O)C(=O)N[C@@H](C)C(=O)N[C@@H](CC(N)=O)C(=O)N1)[C@@H](C)O)C(=O)N[C@@H](CCCCN)C(=O)NCC(=O)N[C@@H](CCCCN)C(=O)N[C@@H](Cc1ccccc1)C(=O)N[C@@H](C)C(=O)N[C@@H](CO)C(N)=O [4b] (Ac-EFHGE[R5]AN[S5]KATKFLESIKGKFAS-NH2; staple 6-9) here?
Its value is 21.7%.

Which “% helicity” value does the source give for CC[C@H](C)[C@H](NC(=O)[C@]1(C)CCCCCCC=CCCCC2(CCCC=CCCCCCC[C@@](C)(NC(=O)[C@H](Cc3ccccc3)NC(=O)[C@H](CCC(=O)O)NC(C)=O)C(=O)NCC(=O)N[C@@H](CCC(=O)O)C(=O)N[C@@H](CC(=O)O)C(=O)N[C@@H](C)C(=O)N[C@@H](CC(N)=O)C(=O)N[C@@H](CC(N)=O)C(=O)N2)C(=O)N[C@@H](C)C(=O)N[C@@H]([C@@H](C)O)C(=O)N[C@@H](CCCCN)C(=O)N[C@@H](Cc2ccccc2)C(=O)N[C@@H](CC(C)C)C(=O)N[C@@H](CCC(=O)O)C(=O)N1)C(=O)N[C@@H](CCCCN)C(=O)NCC(=O)N[C@@H](CCCCN)C(=O)N[C@@H](Cc1ccccc1)C(=O)N[C@@H](C)C(=O)N[C@@H](CO)C(N)=O (stereo partly drawn) [4e3b] here?
Its value is 51.1%.

With CC[C@H](C)[C@H](NC(=O)[C@H](CO)NC(=O)[C@H](CCC(=O)O)NC(=O)[C@H](CC(C)C)NC(=O)[C@H](Cc1ccccc1)NC(=O)[C@]1(C)CCCC=CCCC[C@@](C)(NC(=O)[C@H](CC(N)=O)NC(=O)[C@H](CC(N)=O)NC(=O)[C@H](C)NC(=O)[C@H](CC(=O)O)NC(=O)[C@H](CCC(=O)O)NC(C)=O)C(=O)N[C@@H](C)C(=O)N[C@@H]([C@@H](C)O)C(=O)N1)C(=O)N[C@@H](CCCCN)C(=O)NCC(=O)N[C@@H](CCCCN)C(=O)N[C@@H](Cc1ccccc1)C(=O)N[C@@H](C)C(=O)N[C@@H](CO)C(N)=O [1b] (Ac-EDANN[R5]AT[S5]FLESIKGKFAS-NH2; staple 6-9) as the compound, how does the “% helicity” value read?
Its value is 11.5%.

With CC[C@H](C)[C@H](NC(=O)[C@H](CO)NC(=O)[C@H](CCC(=O)O)NC(=O)[C@H](CC(C)C)NC(=O)[C@H](Cc1ccccc1)NC(=O)[C@H](CCCCN)NC(=O)[C@@H](NC(=O)[C@H](C)NC(=O)[C@]1(C)CCCC=CCCCCCC[C@@](C)(NC(=O)[C@H](Cc2ccccc2)NC(=O)[C@H](CCC(=O)O)NC(C)=O)C(=O)NCC(=O)N[C@@H](CCC(=O)O)C(=O)N[C@@H](CC(=O)O)C(=O)N[C@@H](C)C(=O)N[C@@H](CC(N)=O)C(=O)N[C@@H](CC(N)=O)C(=O)N1)[C@@H](C)O)C(=O)N[C@@H](CCCCN)C(=O)NCC(=O)N[C@@H](CCCCN)C(=O)N[C@@H](Cc1ccccc1)C(=O)N[C@@H](C)C(=O)N[C@@H](CO)C(N)=O [4e] (Ac-EF[R8]GEDANN[S5]ATKFLESIKGKFAS-NH2; staple 3-10) as the compound, how does the “% helicity” value read?
Its value is 28.8%.

For CC[C@H](C)[C@H](NC(=O)[C@H](CO)NC(=O)[C@H](CCC(=O)O)NC(=O)[C@H](CC(C)C)NC(=O)[C@H](Cc1ccccc1)NC(=O)[C@H](CCCCN)NC(=O)[C@@H](NC(=O)[C@H](C)NC(=O)[C@]1(C)CCCC=CCCC[C@](C)(NC(=O)[C@H](CCC(=O)O)NC(=O)CNC(=O)[C@H](Cc2c[nH]cn2)NC(=O)[C@H](Cc2ccccc2)NC(=O)[C@H](CCC(=O)O)NC(C)=O)C(=O)N[C@@H](C)C(=O)N[C@@H](CC(N)=O)C(=O)N[C@@H](CC(N)=O)C(=O)N1)[C@@H](C)O)C(=O)N[C@@H](CCCCN)C(=O)NCC(=O)N[C@@H](CCCCN)C(=O)N[C@@H](Cc1ccccc1)C(=O)N[C@@H](C)C(=O)N[C@@H](CO)C(N)=O [4d] (Ac-EFHGE[S5]ANN[S5]ATKFLESIKGKFAS-NH2; staple 6-10), which “% helicity” value is on record?
The value was 28.0%.

For CC[C@H](C)[C@@H]1NC(=O)[C@H](CO)NC(=O)[C@@](C)(NC(=O)[C@H](CC(C)C)NC(=O)[C@H](Cc2ccccc2)NC(=O)[C@H](CCCCN)NC(=O)[C@@H](NC(=O)[C@H](C)NC(=O)[C@H](CCCCN)NC(=O)[C@H](CC(N)=O)NC(=O)[C@H](CC(N)=O)NC(=O)[C@H](C)NC(=O)[C@H](CC(=O)O)NC(=O)[C@H](CCC(=O)O)NC(=O)CNC(=O)[C@H](Cc2c[nH]cn2)NC(=O)[C@H](Cc2ccccc2)NC(=O)[C@H](CCC(=O)O)NC(C)=O)[C@@H](C)O)CCCC=CCCCC2(CCCC=CCCC[C@@](C)(C(=O)N[C@@H](CO)C(N)=O)NC(=O)[C@H](Cc3ccccc3)NC(=O)[C@H](CCCCN)NC2=O)NC(=O)[C@H](CCCCN)NC1=O (stereo partly drawn) [2e1f], which “% helicity” value is on record?
Its value is 27.0%.

With CC[C@H](C)[C@H](NC(=O)[C@H](CO)NC(=O)[C@H](CCC(=O)O)NC(=O)[C@H](CC(C)C)NC(=O)[C@H](Cc1ccccc1)NC(=O)[C@]1(C)CCCC=CCCCCCC[C@@](C)(NC(=O)[C@H](CCC(=O)O)NC(=O)CNC(=O)[C@H](Cc2c[nH]cn2)NC(=O)[C@H](Cc2ccccc2)NC(=O)[C@H](CCC(=O)O)NC(C)=O)C(=O)N[C@@H](C)C(=O)N[C@@H](CC(N)=O)C(=O)N[C@@H](CC(N)=O)C(=O)N[C@@H](CCCCN)C(=O)N[C@@H](C)C(=O)N[C@@H]([C@@H](C)O)C(=O)N1)C(=O)N[C@@H](CCCCN)C(=O)NCC(=O)N[C@@H](CCCCN)C(=O)N[C@@H](Cc1ccccc1)C(=O)N[C@@H](C)C(=O)N[C@@H](CO)C(N)=O [4f] (Ac-EFHGE[R8]ANNKAT[S5]FLESIKGKFAS-NH2; staple 6-13) as the compound, how does the “% helicity” value read?
The value was 17.2%.

For CC[C@H](C)[C@H](NC(=O)[C@]1(C)CCCC=CCCCCCC[C@@](C)(NC(=O)[C@H](CC(N)=O)NC(=O)[C@H](CC(N)=O)NC(=O)[C@H](C)NC(=O)[C@H](CC(=O)O)NC(=O)[C@H](CCC(=O)O)NC(=O)CNC(=O)[C@H](Cc2c[nH]cn2)NC(=O)[C@H](Cc2ccccc2)NC(=O)[C@H](CCC(=O)O)NC(C)=O)C(=O)N[C@@H](C)C(=O)N[C@@H]([C@@H](C)O)C(=O)N[C@@H](CCCCN)C(=O)N[C@@H](Cc2ccccc2)C(=O)N[C@@H](CC(C)C)C(=O)N[C@@H](CCC(=O)O)C(=O)N1)C(=O)N[C@@H](CCCCN)C(=O)NCC(=O)N[C@@H](CCCCN)C(=O)N[C@@H](Cc1ccccc1)C(=O)N[C@@H](C)C(=O)N[C@@H](CO)C(N)=O [4g], which “% helicity” value is on record?
The value was 47.6%.
